The text below walks through data of patent publication US20200326330A1, “Device and method for multidimensional cell culture” (Premas Biotech Pvt Ltd, priority 2019, published 2020).

Experiment [1] concerns MCF-7 tissueoids. Put plainly: Morphology and growth of MCF-7 tissueoids on AXTEX-4D treated with doxorubicin. The note with it: 3 days. The class given is cell-based, human.
The test system of experiment [2] is MCF-7 cells. Put plainly: Prestoblue viability of MCF-7 2D monolayer culture. Type of experiment: cell-based. The note with it: Homo sapiens, MCF7, 1 μM doxorubicin, 48 hrs, read-out: viability (prestoblue, normalized with vehicle control as 100%).
Experiment [3] concerns MCF-7 cells. Put plainly: Morphology and growth of MCF-7 cells in 2D monolayer culture treated with doxorubicin. Type of experiment: cell-based, human. The note with it: MCF-7 2D monolayer, 3 days.
Experiment [4] has as its system MCF-7 tissueoids. Put plainly: Prestoblue viability of MCF-7 tissueoids (3D) on AXTEX-4D.

With `COc1cccc2c1C(=O)c1c(O)c3c(c(O)c1C2=O)C[C@@](O)(C(=O)CO)C[C@@H]3O[C@H]1C[C@H](N)[C@H](O)[C@H](C)O1` [doxorubicin, Doxorubicin], the growth of tissueoids result in experiment [1] (2.5 μM doxorubicin) was “not inhibited”; in experiment [1] (5 μM doxorubicin) it was “Partial growth inhibition”. The “tissueoid morphology at higher concentration” value in experiment [1] (higher concentration (5)) was “shrinking of the tissueoid was visible”. Moreover, the viability at 1 µM in experiment [2] was 35%; in experiment [4] (Homo sapiens, MCF7, 48 h, read-out: viability (prestoblue, normalized with vehicle control as 100%)), approximately 80%. Also, the “morphology (vacuoles) in 2D culture” value in experiment [3] (1 μM doxorubicin) was “Vacuoles were observed”. Besides, the “growth inhibition in 2D culture” value in experiment [3] (vs DMSO vehicle control) is reported as “Dose-dependent growth inhibition”. The “resistance of tissueoids compared to vehicle control” value in experiment [4] (MCF-7 tissueoids, 1 μM doxorubicin) was “partial resistance”.
